Patent US20230406859A1, “METHOTREXATE ANALOGS AND METHODS OF USE” (The United States of America, as represented by the …, priority 2020, published 2023)

Test system: HBL1 cell line
Test: CellTiter-Glo cell viability (cytotox), HBL1 cell line, 72 hours
Assay type: cell-based
Settings: HBL1 cell line, CellTiter-Glo; unit inferred
Description: CellTiter-Glo viability assays: Five μL of cells (2500 cells) from the 12-well plate culture were plated into white 1536-well plates (Greiner, Monroe, NC, 789173-F) in 6 replicates. CellTiter-Glo Luminescent Cell Viability Assay (CTG) (Promega, G7572), 2.5 μL/well reagent was added with a BioRAPTR FRD (Beckman Coulter, Sykesville, MD), plates were incubated in the dark at ambient temperature for 10 min, and luminescence measured with a ViewLux 1430 Ultra HTS (Perkin Elmer, Waltham, MA).

How did the IC50 turn out when `CN(Cc1cnc2nc(N)nc(N)c2n1)c1ccc(C(=O)N[C@@H](CCC(=O)O)C(=O)NCCOCCOCCOCCNC(=O)COc2cccc3c2C(=O)N(C2CCC(=O)NC2=O)C3=O)cc1` (stereo partly drawn) [NCGC00690069, (17S)-17-(4-(((2,4-diaminopteridin-6-yl)methyl)(methyl)amino)benzamido)-1-((2-(2,6-dioxopiperidin-3-yl)-1,3-dioxoisoindolin-4-yl)oxy)-2,16-dioxo-6,9,12-trioxa-3,15-diazaicosan-20-oic acid] was run?
Its IC50 is 35.8 µM.

With `CN(Cc1cnc2nc(N)nc(N)c2n1)c1ccc(C(=O)NC(CCC(=O)O)C(=O)NCCCCCCCCNc2cccc3c2C(=O)N(C2CCC(=O)NC2=O)C3=O)cc1` (centres unmarked) [NCGC00690075, 4-(4-(((2,4-diaminopteridin-6-yl)methyl)(methyl)amino)benzamido)-5-((8-((2-(2,6-dioxopiperidin-3-yl)-1,3-dioxoisoindolin-4-yl)amino)octyl)amino)-5-oxopentanoic acid] as the compound, how does the IC50 read?
Its IC50 is 70 µM.

`Nc1nc(N)c2nc(CN(CCCCCCNC(=O)COc3cccc4c3C(=O)N(C3CCC(=O)NC3=O)C4=O)c3ccc(C(=O)N[C@@H](CCC(=O)O)C(=O)O)cc3)cnc2n1` (some centres unmarked) [NCGC00690396, (4-(((2,4-diaminopteridin-6-yl)methyl)(6-(2-((2-(2,6-dioxopiperidin-3-yl)-1,3-dioxoisoindolin-4-yl)oxy)acetamido)hexyl)amino)benzoyl)glutamic acid] was tested. Which IC50 did it give?
The IC50 was 26.6 µM.

How did the IC50 turn out when `CN(Cc1cnc2nc(N)nc(N)c2n1)c1ccc(C(=O)N[C@@H](CCC(=O)O)C(=O)NCCOCCOCCNc2cccc3c2C(=O)N(C2CCC(=O)NC2=O)C3=O)cc1` (stereo partly drawn) [NCGC00690407, (4S)-4-(4-(((2,4-diaminopteridin-6-yl)methyl)(methyl)amino)benzamido)-5-((2-(2-(2-((2-(2,6-dioxopiperidin-3-yl)-1,3-dioxoisoindolin-4-yl)amino)ethoxy)ethoxy)ethyl)amino)-5-oxopentanoic acid] was run?
The IC50 was 32.9 µM.

For `CN(Cc1cnc2nc(N)nc(N)c2n1)c1ccc(C(=O)N[C@@H](CCC(=O)O)C(=O)NCCCNc2cccc3c2C(=O)N(C2CCC(=O)NC2=O)C3=O)cc1` (stereo partly drawn) [NCGC00690412, (4S)-4-(4-(((2,4-diaminopteridin-6-yl)methyl)(methyl)amino)benzamido)-5-((3-((2-(2,6-dioxopiperidin-3-yl)-1,3-dioxoisoindolin-4-yl)amino)propyl)amino)-5-oxopentanoic acid], which IC50 is on record?
The IC50 was 38.6 µM.
